Measurements as given in ChEMBL document CHEMBL5543091, “Exploring structural determinants of neuroprotection bias on novel glypromate conjugates with bioactive amines” (2024).
Active and inactive are the calls of the source. The rule behind the calls is not given here.

What was measured:
SH-SY5Y [1] = assay: Neuroprotective activity against Amyloid beta(25 to 35)-induced cell injury in non-differentiated human SH-SY5Y cells assessed as reduction in formation of protein aggregates at 100 uM incubated for 24 hrs by ThT fluorescence assay; format: functional; set-up: scale not given: the % may be the effect or the level left
SH-SY5Y [2] = assay: Cytotoxicity against differentiated human SH-SY5Y cells assessed as reduction in cell viability at 100 uM measured after 48 hrs by MTT reduction assay relative to control; format: functional
SH-SY5Y [3] = assay: Cytotoxicity against non-differentiated human SH-SY5Y cells assessed as reduction in cell viability measured after 24 hrs by MTT reduction assay relative to control; format: functional; set-up: concentration or dose not given beside the values
SH-SY5Y [4] = assay: Neuroprotective activity in Amyloid beta(25 to 35)-induced non-differentiated human SH-SY5Y cells assessed as fold increase in protein aggregation reduction 100 uM incubated for 24 hrs by ThT fluorescence assay; format: functional
SH-SY5Y [5] = assay: Neuroprotective activity against Amyloid beta(25 to 35)-induced cell injury in non-differentiated human SH-SY5Y cells assessed as reduction in formation of protein aggregates at 100 uM incubated for 24 hrs by fluorescence microscopy based analysis; format: functional
SH-SY5Y [6] = assay: Neuroprotective activity against 6-OHDA-induced cytotoxicity in differentiated human SH-SY5Y cells at 100 uM incubated for 48 hrs followed by exposure to 6-OHDA by MTT reduction assay (reference value: 61.50+/-7.43%); format: functional; set-up: scale not given: the % may be the effect or the level left
SH-SY5Y [7] = assay: Neuroprotective activity against Amyloid beta(25 to 35)-induced cell injury in non-differentiated human SH-SY5Y cells assessed as reduction in formation of protein aggregates at 100 uM incubated for 24 hrs in presence of glypromate by ThT fluorescence assay; format: functional; set-up: scale not given: the % may be the effect or the level left
SH-SY5Y [8] = assay: Neuroprotective activity against 6-OHDA-induced cytotoxicity in differentiated human SH-SY5Y cells at 100 uM incubated for 48 hrs followed by exposure to 6-OHDA in presence of glypromate by MTT reduction assay; format: functional, cell-based
SH-SY5Y [9] = assay: Neuroprotective activity against 6-OHDA-induced cytotoxicity in differentiated human SH-SY5Y cells at 100 uM incubated for 48 hrs followed by exposure to 6-OHDA by MTT reduction assay; format: functional, cell-based

| SMILES | Activity (SH-SY5Y [1]) [%] | Activity (SH-SY5Y [2]) [%] | Activity (SH-SY5Y [3]) [%] | also measured |
| --- | --- | --- | --- | --- |
| COC(=O)[C@H](CCC(=O)NC12CC3CC(CC(C3)C1)C2)NC(=O)[C@@H]1CCCCN1C(=O)CNC(=O)OC(C)(C)C | 127.26 | 91.13 | 92.96 |  |
| COC(=O)CC[C@H](NC(=O)[C@@H]1CCCN1C(=O)CN)C(=O)N[C@@H]1CCc2ccccc21.O=C(O)C(F)(F)F | 62.25 | 98.44 | 87.33 | fold change (FC) (SH-SY5Y [4]): 3.2; Activity (SH-SY5Y [5]): Active; Activity (SH-SY5Y [6]): 65.5% |
| N[C@@H]1CCc2ccccc21 | 38 |  |  | Activity (SH-SY5Y [7]): 79.68% |
| COC(=O)[C@H](CCC(=O)N[C@@H]1CCc2ccccc21)NC(=O)[C@@H]1CCCN1C(=O)CNC(=O)OC(C)(C)C |  |  | <85 |  |
| COC(=O)CC[C@H](NC(=O)[C@@H]1CCCCN1C(=O)CNC(=O)OC(C)(C)C)C(=O)N[C@@H]1CCc2ccccc21 | 120.05 | 99.35 | 97.28 |  |
| COC(=O)CC[C@H](NC(=O)[C@@H]1CCCCN1C(=O)CN(C)C)C(=O)NC12CC3CC(CC(C3)C1)C2 |  |  | 93.57 |  |
| COC(=O)CC[C@H](NC(=O)[C@@H]1CCCCN1C(=O)CN)C(=O)NC12CC3CC(C)(CC(C)(C3)C1)C2.O=C(O)C(F)(F)F |  | <25 | <85 |  |
| COC(=O)CC[C@H](NC(=O)[C@@H]1CCCCN1C(=O)CN)C(=O)NC12CC3CC(CC(C3)C1)C2.O=C(O)C(F)(F)F | 132.48 | 97.33 | 92.68 |  |
| COC(=O)[C@H](CCC(=O)NC12CC3CC(CC(C3)C1)C2)NC(=O)[C@@H]1CCCN1C(=O)CN(C)C |  |  | 86.22 |  |
| COC(=O)CC[C@H](NC(=O)[C@@H]1CCCCN1C(=O)CNC(=O)OC(C)(C)C)C(=O)NC12CC3CC(CC(C3)C1)C2 | 133.03 | 101.45 | 92.73 |  |
| COC(=O)CC[C@H](NC(=O)[C@@H]1CCCN1C(=O)CNC(=O)OC(C)(C)C)C(=O)NC12CC3CC(CC(C3)C1)C2 | 80.35 |  | 89.28 |  |
| COC(=O)[C@H](CCC(=O)NC12CC3CC(CC(C3)C1)C2)NC(=O)[C@@H]1CCCN1C(=O)CN.O=C(O)C(F)(F)F |  |  | 89.04 |  |
| COC(=O)[C@H](CCC(=O)NC12CC3CC(CC(C3)C1)C2)NC(=O)[C@@H]1CCCN1C(=O)CNC(=O)OC(C)(C)C |  |  | <85 |  |
| COC(=O)CC[C@H](NC(=O)[C@@H]1CCCN1C(=O)CN(C)C)C(=O)NC12CC3CC(CC(C3)C1)C2 | 79.52 | 107.67 | 91.14 | Activity (SH-SY5Y [6]): 68.03% |
| COC(=O)[C@H](CCC(=O)N[C@@H]1CCc2ccccc21)NC(=O)[C@@H]1CCCCN1C(=O)CNC(=O)OC(C)(C)C | 120.77 |  | 96.69 |  |
| COC(=O)CC[C@H](NC(=O)[C@@H]1CCCN1C(=O)CN(C)C)C(=O)NC12CC3CC(C)(CC(C)(C3)C1)C2 |  | 103.96 | <85 | Activity (SH-SY5Y [6]): 70.93% |
| COC(=O)[C@H](CCC(=O)NC12CC3CC(C)(CC(C)(C3)C1)C2)NC(=O)[C@@H]1CCCCN1C(=O)CN.O=C(O)C(F)(F)F |  | <25 | <85 |  |
| COC(=O)CC[C@H](NC(=O)[C@@H]1CCCN1C(=O)CNC(=O)OC(C)(C)C)C(=O)N[C@@H]1CCc2ccccc21 |  |  | <85 |  |
| COC(=O)CC[C@H](NC(=O)[C@@H]1CCCN1C(=O)CN(C)C)C(=O)N[C@@H]1CCc2ccccc21 | 69.21 | 104.91 | 93.5 |  |
| CC12CC3CC(C)(C1)CC(N)(C3)C2 |  |  |  | Activity (SH-SY5Y [8]): inactive; Activity (SH-SY5Y [9]): inactive |
